Laboratory results as given in PubChem BioAssay (NCI).
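All cell lines were grown in 96-well plates and treated with compound for 48 hours. At the GI50, growth is halved. TGI denotes the concentration required for complete inhibition of growth.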

Columns and labels:
Experiment in all cases: growth of human tumour cells (NCI), 48 h
SK-OV-3 ovarian = test system: SK-OV-3 ovarian
SN12C renal = test system: SN12C renal
OVCAR-8 ovarian = test system: OVCAR-8 ovarian
786-0 renal = test system: 786-0 renal
SK-MEL-2 melanoma = test system: SK-MEL-2 melanoma
SNB-19 CNS = test system: SNB-19 CNS
NCI-H226 lung = test system: NCI-H226 lung
HS 578T breast = test system: HS 578T breast
PC-3 prostate = test system: PC-3 prostate
BT-549 breast = test system: BT-549 breast

Row | Structure (SMILES) | TGI (SK-OV-3 ovarian) | TGI (SN12C renal) | TGI (OVCAR-8 ovarian) | TGI (786-0 renal) | TGI (SK-MEL-2 melanoma) | TGI (SNB-19 CNS) | GI50 (NCI-H226 lung) | GI50 (SN12C renal) | GI50 (HS 578T breast) | GI50 (OVCAR-8 ovarian) | GI50 (786-0 renal) | GI50 (SK-MEL-2 melanoma) | GI50 (PC-3 prostate) | GI50 (BT-549 breast) | TGI (BT-549 breast) | GI50 (SNB-19 CNS) | GI50 (SK-OV-3 ovarian) | TGI (NCI-H226 lung) | TGI (HS 578T breast) | TGI (PC-3 prostate)
1 | NS(=O)(=O)c1ccc(NC(=O)c2cccc3c(Nc4ccc(S(N)(=O)=O)cc4)c4ccccc4nc23)cc1 | > 100 µM | > 100 µM | > 100 µM | > 100 µM | 82.3 µM | > 100 µM |  |  |  |  |  |  |  |  |  |  |  |  |  | 
2 | COc1ccc(C=C2C(=O)NC(=O)NC2=O)cc1OCc1ccccc1 |  |  |  |  | 79.4 µg/mL |  | 49.1 µg/mL | 47.6 µg/mL | 27.1 µg/mL | 57.3 µg/mL | 52.9 µg/mL | 25.6 µg/mL | 46.7 µg/mL | 16.8 µg/mL | 43.2 µg/mL | 23.3 µg/mL |  |  |  | 
3 | Nc1ccccc1C#C/C=C\C#Cc1ccccc1F | 46 µM | 20.9 µM | 67.7 µM | 23.6 µM | 47.3 µM |  | 15.2 µM | 7.37 µM | 2.09 µM | 18.5 µM | 9.28 µM | 17.3 µM | 6.8 µM | 4.06 µM | 18.1 µM |  | 16.7 µM | 33.3 µM | 5.1 µM | > 100 µM
4 | O=C1c2ccn(CCCCN(CCO)CCO)c2C(=O)c2c1c(O)c1ccccc1c2O | > 43.3 µM | 25 µM | > 100 µM | > 48.4 µM |  | > 100 µM | 64 µM | 6.85 µM | 17.4 µM | 3.61 µM | 5.39 µM |  | 3.05 µM | 20.7 µM | 60.9 µM | 20.2 µM | 7.74 µM | > 100 µM | 59.3 µM | > 20.7 µM
5 | O=S(=O)(N/N=C/c1ccc(Cl)cc1Cl)c1ccccc1 | > 100 µM | > 100 µM | > 100 µM | > 100 µM | > 100 µM |  |  |  |  |  |  |  |  |  |  |  |  | > 100 µM |  | 
6 | NNC(=S)N/N=C(/C(=O)Nc1ccc([N+](=O)[O-])cc1)c1nc2ccc([N+](=O)[O-])cc2[nH]c1=O | > 100 µM | > 100 µM | > 100 µM | > 100 µM | > 100 µM |  |  |  |  |  |  |  |  |  |  |  |  | > 100 µM |  | 
7 | O=C1NN=CN2C(=O)CCC12 (stereo not given) | > 100 µM | > 100 µM | > 100 µM | > 100 µM | > 100 µM | > 100 µM |  |  |  |  |  |  |  |  |  |  |  |  |  | 
8 | O=C(O)c1cc(=O)c2cc(C(=O)c3cccs3)c(Cl)c(Cl)c2o1 | > 100 µM | > 100 µM | > 100 µM | > 100 µM | > 100 µM | > 100 µM |  |  |  |  |  |  |  |  |  |  |  | > 100 µM |  | 
9 | Oc1ccc(O)c2c1C1(Cl)C(Cl)=C(Cl)C2(Cl)C1(Cl)Cl | 20.4 µM | 22.7 µM | 36.6 µM | 22.4 µM |  | 27.3 µM | 10.7 µM | 5.29 µM | 2.07 µM | 10.3 µM | 7.84 µM |  | 3.14 µM |  |  | 9.45 µM | 7.41 µM | 41 µM | 8.09 µM | 16.4 µM
10 | COc1ccc(/C=N\O[Si](C)(C)C(C)(C)C)cc1O[Si](C)(C)C(C)(C)C | 46.5 µM | 35.1 µM | 45.2 µM | 30.8 µM | 31.5 µM | 33.3 µM |  |  |  |  |  |  |  |  |  |  |  |  |  | 
